From US20230107642A1 (Erasca, Inc., priority 2020, published 2023)

target: T1, Cys12 of the KRAS 4B G12C protein (Homo sapiens, UniProt P01116, G12C); test: In vitro covalent adduct formation (CAF) assay, LC-MS intact mass; type: binding; settings: 10 uM compound, 60 min
T1 construct: This protein contained 188 amino acids in total, including an N-terminal 6-Histidine tag; made in house; host or cells: E. coli BL21
Protocol: This Example provides a protocol for assessing covalent adduct formation (CAF) between the compounds of the present application and KRAS.
In vitro covalent adduct formation assay: Covalent adduct formation (CAF) reactions between Cys12 of the KRAS 4B G12C protein and some of the compounds of Tables 1 to 4 were measured in vitro using liquid chromatography-mass spectrometry (LC-MS).
Recombinant Human KRAS 4B protein containing the G12C mutation was used in compound screening experiments. This protein contained 188 amino acids in total, including an N-terminal 6-Histidine tag, followed by a Tobacco Etch Virus (TEV) tag, followed by residues 1-169 of the native KRAS 4B sequence. The exact mass of the protein was 21,310 Da as determined by mass spectrometry. The full amino acid sequence is shown below: […]
The recombinant protein was expressed in E. coli BL21 cells and purified using affinity chromatography via a Ni-NTA column. Protein stocks were nucleotide-exchanged to >95% GDP, concentrated to 4 mg/mL, and stored at −80° C. in storage buffer (50 mM HEPES pH 7.4, 50 mM NaCl, 5 mM MgCl2, 1 mM DTT). Pure KRAS 4B G12C protein was diluted to a concentration of 5 μM in Tris Buffered Saline, pH 7.4. The compounds were dissolved in DMSO and added to the diluted protein to make a 10 μM concentration. The total DMSO concentration in the reaction was 4%. The reaction was mixed by pipetting and incubated at 22° C. for one hour. Aliquots of the reaction were taken over time and diluted 2:1 in 0.1% formic acid. The intact mass of the protein samples was measured by LC-MS using a QExactive+ mass spectrometer (Thermo Scientific). An amount of 500 ng total protein was injected onto a C8 reverse phase column, eluted with a seven-minute gradient of 30%-90% acetonitrile/0.1% formic acid, and analyzed for intact mass by the mass spectrometer. Adducts identified were confirmed to be within 1 Dalton of the expected mass, and the relative ratios of free:adduct protein were used to quantify the percentage of protein bound by the compound. CAF reactions were run in duplicate, with a typical variability of ±5%.

Compound | % CAF 10 uM @ 60 min [%]
C=CC(=O)N1CCN(c2nc(=O)n3c4c(c(-c5ccc(F)cc5F)c(C(F)(F)F)cc24)SC[C@@H]3CN2CCN(CC)CC2)CC1 (atropisomer, axis not shown) [Example 1318, (3S,10R)-7-(4-acryloylpiperazin-1-yl)-10-(2,4-difluorophenyl)-3-((4-ethylpiperazin-1-yl)methyl)-9-(trifluoromethyl)-2,3-dihydro-5H-[1,4]thiazino[2,3,4-ij]quinazolin-5-one] | 99.6
C=CC(=O)N1[C@H](C)CN(c2nc(=O)n3c4c(c(-c5ccc(F)cc5F)c(C(F)(F)F)cc24)SC[C@@H]3COCOC)C[C@@H]1C (atropisomer, axis not shown) [Example 1319, (3S,10S)-7-((3S,5R)-4-acryloyl-3,5-dimethylpiperazin-1-yl)-10-(2,4-difluorophenyl)-3-((methoxymethoxy)methyl)-9-(trifluoromethyl)-2,3-dihydro-5H-[1,4]thiazino[2,3,4-ij]quinazolin-5-one] | 96.3
C=CC(=O)N1[C@H](C)CN(c2nc(=O)n3c4c(c(-c5ccc(F)cc5F)c(C(F)(F)F)cc24)SC[C@@H]3COCOC)C[C@@H]1C (atropisomer, axis not shown) [Example 1320, (3S,10R)-7-((3S,5R)-4-acryloyl-3,5-dimethylpiperazin-1-yl)-10-(2,4-difluorophenyl)-3-((methoxymethoxy)methyl)-9-(trifluoromethyl)-2,3-dihydro-5H-[1,4]thiazino[2,3,4-ij]quinazolin-5-one] | 97.4
C=CC(=O)N1C[C@H](C)N(c2nc(=O)n3c4c(c(-c5ccc(F)cc5F)c(C(F)(F)F)cc24)SC[C@@H]3CN2C[C@@H]3C[C@H]2CO3)C[C@H]1C (atropisomer, axis not shown) [Example 1322, (3S,10S)-3-(((1S,4S)-2-oxa-5-azabicyclo[2.2.1]heptan-5-yl)methyl)-7-((2S,5R)-4-acryloyl-2,5-dimethylpiperazin-1-yl)-10-(2,4-difluorophenyl)-9-(trifluoromethyl)-2,3-dihydro-5H-[1,4]thiazino[2,3,4-ij]quinazolin-5-one] | 96.2
C=CC(=O)N1C[C@H](C)N(c2nc(=O)n3c4c(c(-c5ccc(F)cc5F)c(C(F)(F)F)cc24)SC[C@@H]3CN2C[C@@H]3C[C@H]2CO3)C[C@H]1C (atropisomer, axis not shown) [Example 1323, (3S,10R)-3-(((1S,4S)-2-oxa-5-azabicyclo[2.2.1]heptan-5-yl)methyl)-7-((2S,5R)-4-acryloyl-2,5-dimethylpiperazin-1-yl)-10-(2,4-difluorophenyl)-9-(trifluoromethyl)-2,3-dihydro-5H-[1,4]thiazino[2,3,4-ij]quinazolin-5-one] | 96.1
C=CC(=O)N1[C@H](C)CN(c2nc(=O)n3c4c(c(-c5ccc(F)cc5F)c(C(F)(F)F)cc24)SC[C@@H]3CN(C)C)C[C@@H]1C (atropisomer, axis not shown) [Example 1324, (3S,10R)-7-((3S,5R)-4-acryloyl-3,5-dimethylpiperazin-1-yl)-10-(2,4-difluorophenyl)-3-((dimethylamino)methyl)-9-(trifluoromethyl)-2,3-dihydro-5H-[1,4]thiazino[2,3,4-ij]quinazolin-5-one] | 82.2
C=CC(=O)N1[C@H](C)CN(c2nc(=O)n3c4c(c(-c5ccc(F)cc5F)c(C(F)(F)F)cc24)SC[C@@H]3CN(C)C)C[C@@H]1C (atropisomer, axis not shown) [Example 1325, (3S,10S)-7-((3S,5R)-4-acryloyl-3,5-dimethylpiperazin-1-yl)-10-(2,4-difluorophenyl)-3-((dimethylamino)methyl)-9-(trifluoromethyl)-2,3-dihydro-5H-[1,4]thiazino[2,3,4-ij]quinazolin-5-one] | 81.4
C=CC(=O)N1C[C@H](C)N(c2nc(=O)n3c4c(c(-c5ccc(F)cc5F)c(C(F)(F)F)cc24)SC[C@@H]3COCOC)C[C@H]1C (atropisomer, axis not shown) [Example 1326, (3S,10S)-7-((2S,5R)-4-acryloyl-3,5-dimethylpiperazin-1-yl)-10-(2,4-difluorophenyl)-3-((methoxymethoxy)methyl)-9-(trifluoromethyl)-2,3-dihydro-5H-[1,4]thiazino[2,3,4-ij]quinazolin-5-one] | 82.3
C=CC(=O)N1C[C@H](C)N(c2nc(=O)n3c4c(c(-c5ccc(F)cc5F)c(C(F)(F)F)cc24)SC[C@@H]3COCOC)C[C@H]1C (atropisomer, axis not shown) [Example 1327, (3S,10R)-7-((2S,5R)-4-acryloyl-3,5-dimethylpiperazin-1-yl)-10-(2,4-difluorophenyl)-3-((methoxymethoxy)methyl)-9-(trifluoromethyl)-2,3-dihydro-5H-[1,4]thiazino[2,3,4-ij]quinazolin-5-one] | 86.3
C=CC(=O)N1[C@H](C)CN(c2nc(=O)n3c4c(c(-c5ccc(F)cc5F)c(C(F)(F)F)cc24)SC[C@@H]3CN2CCN(CC)CC2)C[C@@H]1C (atropisomer, axis not shown) [Example 1329, (3S,10R)-7-((3S,5R)-4-acryloyl-3,5-dimethylpiperazin-1-yl)-10-(2,4-difluorophenyl)-3-((4-ethylpiperazin-1-yl)methyl)-9-(trifluoromethyl)-2,3-dihydro-5H-[1,4]thiazino[2,3,4-ij]quinazolin-5-one] | 95.4
C=CC(=O)N1[C@H](C)CN(c2nc(=O)n3c4c(c(-c5ccc(F)cc5F)c(C(F)(F)F)cc24)SC[C@@H]3CN2CCN(CC)CC2)C[C@@H]1C (atropisomer, axis not shown) [Example 1330, (3S,10S)-7-((3S,5R)-4-acryloyl-3,5-dimethylpiperazin-1-yl)-10-(2,4-difluorophenyl)-3-((4-ethylpiperazin-1-yl)methyl)-9-(trifluoromethyl)-2,3-dihydro-5H-[1,4]thiazino[2,3,4-ij]quinazolin-5-one] | 85
C=CC(=O)N1[C@H](C)CN(c2nc(=O)n3c4c(c(-c5cc(Cl)c(F)cc5F)c(C(F)(F)F)cc24)SC[C@@H]3CN2C[C@@H]3C[C@H]2CO3)C[C@@H]1C (atropisomer, axis not shown) [Example 1331, (3S,10R)-3-(((1S,4S)-2-oxa-5-azabicyclo[2.2.1]heptan-5-yl)methyl)-7-((3S,5R)-4-acryloyl-3,5-dimethylpiperazin-1-yl)-10-(5-chloro-2,4-difluorophenyl)-9-(trifluoromethyl)-2,3-dihydro-5H-[1,4]thiazino[2,3,4-ij]quinazolin-5-one] | 94.5
C=CC(=O)N1[C@H](C)CN(c2nc(=O)n3c4c(c(-c5cc(Cl)c(F)cc5F)c(C(F)(F)F)cc24)SC[C@@H]3CN2C[C@@H]3C[C@H]2CO3)C[C@@H]1C (atropisomer, axis not shown) [Example 1332, (3S,10S)-3-(((1S,4S)-2-oxa-5-azabicyclo[2.2.1]heptan-5-yl)methyl)-7-((3S,5R)-4-acryloyl-3,5-dimethylpiperazin-1-yl)-10-(5-chloro-2,4-difluorophenyl)-9-(trifluoromethyl)-2,3-dihydro-5H-[1,4]thiazino[2,3,4-ij]quinazolin-5-one] | 87
C=CC(=O)N1C[C@H](C)N(c2nc(=O)n3c4c(c(-c5cc(Cl)c(F)cc5F)c(C(F)(F)F)cc24)SC[C@@H]3CN2C[C@@H]3C[C@H]2CO3)C[C@H]1C (atropisomer, axis not shown) [Example 1334, (3S,10R)-3-(((1S,4S)-2-oxa-5-azabicyclo[2.2.1]heptan-5-yl)methyl)-7-((2S,5R)-4-acryloyl-2,5-dimethylpiperazin-1-yl)-10-(5-chloro-2,4-difluorophenyl)-9-(trifluoromethyl)-2,3-dihydro-5H-[1,4]thiazino[2,3,4-ij]quinazolin-5-one] | 80
C=CC(=O)N1C[C@H](C)N(c2nc(=O)n3c4c(c(-c5cc(Cl)c(F)cc5F)c(C(F)(F)F)cc24)SC[C@@H]3CN2C[C@@H]3C[C@H]2CO3)C[C@H]1C (atropisomer, axis not shown) [Example 1335, (3S,10S)-3-(((1S,4S)-2-oxa-5-azabicyclo[2.2.1]heptan-5-yl)methyl)-7-((2S,5R)-4-acryloyl-2,5-dimethylpiperazin-1-yl)-10-(5-chloro-2,4-difluorophenyl)-9-(trifluoromethyl)-2,3-dihydro-5H-[1,4]thiazino[2,3,4-ij]quinazolin-5-one] | 29.7
